The values below come from a melting point compilation (Tetko et al.; mined from patent text by program, amines drawn as free bases though some values may be those of a salt).

Turning to `CS(=O)(=O)N(C(=O)c1ccccc1)c1cc2occc(=O)c2cc1Oc1ccccc1`, the melting point – broadly, the temperature of the solid-liquid transition – was in the range of 164 to 166 °C. Next, `CN(C(=S)n1cc(F)c(N)nc1=O)c1ccccc1`: 192 to 196 °C; `Brc1ccc2c3c(cccc13)C(NCCCCn1ccnc1)=N2`: 145 to 147 °C.

In the case of `COc1cc([N+](=O)[O-])ccc1NC(=O)OCc1ccccc1`, the melting point was in the range of 130 to 131 °C. `COC(=O)CCCOc1cccc(CNC(=O)C2Cc3ccccc3N2S(=O)(=O)c2ccc(-c3cccc(C(F)(F)F)c3)cc2)c1` (stereo not given) displayed a melting point of 50 °C.

The compound `CCOC(=O)NCCOc1ccc(Oc2cccc(Cl)c2)cc1` came in with a melting point of 45 to 46 °C. To `CCOC(=O)c1cccc(Cc2c[nH]cn2)c1O` belongs 133 °C. To `Cc1c(Cc2ccccc2)c2c(c(C)c1NC(=O)CC(C)(C)C)CC(C)(C)O2` belongs 129 to 130 °C; to `COCc1nc(NC(=O)NS(=O)(=O)c2ccccc2C(=O)OC)nc(SC)n1`, 147 to 149 °C. Turning to `CCCc1c(O)ccc2c1OC(C)(CCC(=O)O)CC2=O` (stereo not given), the melting point is 152 to 153 °C.

Compound `Cc1ccc(S(=O)(=O)N2N=C(c3ccccc3)CC3CC=CC32)cc1` (stereo not given) had a melting point of 163 to 165 °C. Next, `CC(=O)Nc1nc(-c2ccccc2)c(-c2ccc(=O)n(C(C)C)n2)s1`: 202 to 204 °C; `CC(C)(C)OC(=O)N1CC(O)CN1C(=O)OC(C)(C)C`: 100 to 102 °C. Compound `CNCc1ccc(Cc2nc3ccccc3[nH]2)cc1` registered a melting point of 157 to 160 °C.

Take `CC(=O)C1C(=O)N(C(=O)Nc2ccccc2)c2ccccc21` (stereo not given): the melting point was 171 to 173 °C.

In the case of `OC(COc1ccc(Cl)cc1)(Cn1cncn1)Cn1cncn1`, the melting point was 99 °C. `CCC1CC(NC(C)=O)=NN1c1cccc(Cl)n1` (stereo not given) returned a melting point of 170 to 171 °C. To `COc1ccc2c(c1)C(=O)C(=O)N2CCN(C(C)C)C(C)C` belongs 81 to 82.5 °C; to `Cc1nc(-n2cnn(CC3CC3)c2=O)sc1C(=O)NCc1ccccn1`, 160 to 161 °C. In turn, `COc1ccc2c(c1)c(CC(=O)NN)cn2Cc1ccccc1` yielded a melting point of 143 to 144 °C. In turn, `C#Cc1cnn(-c2ccnc3cc(Cl)ccc23)c1` yielded a melting point of 174 to 175 °C. As for `COCCC1(C(=O)N[C@@H](Cc2ccc(-c3c(C(F)(F)F)cc(C)n(C)c3=O)cc2)C(=O)O)CCCC1`, the melting point is 181 to 183 °C.

The compound `CCCc1c(OCCCCCOc2cccc3cc(C(=O)O)oc23)ccc2c1OCCC2=O` gave a melting point of 79.5 to 81 °C. For `COC(=O)c1ccc([N+](=O)[O-])[nH]1`, the melting point was in the range of 178 to 179 °C. In turn, `Cc1ccc(C(=O)N(C)C)cc1-c1nc(N(C)CCCN(C)C)nc2c1CNC(=O)N2c1c(F)cccc1F` showed a melting point of 114 to 118 °C.

The compound `COc1cc(C(C)C)c2c(c1)S(=O)(=O)N(COP(=O)(OCc1ccccc1)OCc1ccccc1)C2=O` yielded a melting point of 75.5 to 76.5 °C. To `Cc1cc2c3c(c1)nc(N1CCN(C)CC1)n3CCC2` belongs 164 to 165 °C; to `Cn1c(C(F)(F)F)cc(=O)n(-c2c(O)cc(Cl)cc2F)c1=O`, 143 to 144 °C. `COc1ccc(-c2cc(=O)[nH]nc2-c2ccc(OC)c(F)c2)cc1F` showed a melting point of 205 to 206 °C. As for `COc1ccc2c(c1)C(=O)c1c-2nc2ccccc2c1Cl`, the melting point lay in the range of 216 to 218 °C. The compound `COC(=O)CCc1ccc(N2CCN(c3ccc4c(c3)CCC4=O)C2=O)cc1` displayed a melting point of 204 to 206 °C. To `COc1ccc(C(=O)Nc2ccc3ccc(OC4CCN(C)CC4)nc3n2)cc1` belongs 200 °C; to `CCCCCCCCCCCCOCCCNc1cc(OCC(=O)Nc2ccc(NNC=O)cc2)c2ccccc2c1O`, 137 to 141 °C; to `CC(C#Cc1cccc(OCc2ccccc2)c1)N(O)C(N)=O` (stereo not given), 151 to 153 °C. In turn, `CC(=O)Nc1ccc2c(c1)CCC(=CN(C)C)C2=O` showed a melting point of 207 to 210 °C. The compound `N#CC(=CNc1ccccc1)Cc1ccc2ccccc2c1` yielded a melting point of 148 to 153 °C. To `Cn1cnnc1C(O)(c1ccc(I)cc1)c1ccc2c(c1)c(-c1cccc(Cl)c1)nc1nnnn12` (stereo not given) belongs 228 °C; to `Cn1c2cc3ccccc3nc2c2c(Cl)cccc21`, 228 to 230 °C. Compound `Clc1ncccc1-c1nc2cccnc2o1` displayed a melting point of 140 to 141 °C. Next, `CC(C)C[C@H](NC(=O)c1c(F)cccc1F)C(=O)N[C@@H](C(C)C)[C@@H](O)c1c(-c2ccccc2)c1=O`: 111 to 122 °C; `CC(NC(=O)C1CC(=O)c2cc(F)ccc2O1)c1ccccc1` (single isomer, unassigned; (+)): 140 °C; `C#CCOC1(C(F)(F)F)CN(C)C(=O)Nc2ccc(Cl)cc21` (stereo not given): 230 to 232 °C. On to `Cc1c(C(=O)c2ccc(Cl)c(S(N)(=O)=O)c2)c2ccccc2n1C`, for which the melting point lay within 247 to 249 °C. To `O=C1NC(=S)CCC1N1C(=O)c2ccccc2C1=O` (stereo not given) belongs 225 to 226 °C; to `CCc1c(C)nc2cccc(C)n2c1=O`, 127 to 128 °C.

On to `CNC(=S)Nc1ccc(Oc2sc(C(N)=O)c3c2-c2c(cnn2C)CC3)cc1`, for which the melting point was in the range of 199 to 201 °C.

Compound `CC(Cc1c[nH]c2ccccc12)(NC(=O)OC1C2CC3CC(C2)CC1C3)C(=O)NC1(C(=O)O)CCCCC1` (stereo not given) came in with a melting point of 203 to 208 °C. Consider `Oc1cc(OCc2ccccc2)cc(OCc2ccccc2)c1C/C=C/c1ccccc1`, for which the melting point is 76 to 78 °C. Compound `COc1cc(-c2cn(Cc3ccccc3)c(=O)c3ccccc23)ccc1O` had a melting point of 165 to 167 °C.

`COC1C=C(C)C(=O)CC(C)(C)C1OC(=O)c1ccccc1` (stereo not given): the melting point was 91.5 to 93.5 °C. `Cc1nnc(C=Cc2ccccc2OCC2CO2)s1` (stereo not given) displayed a melting point of 134 to 135 °C. In turn, `COc1ccc(-c2oc(CCCCCc3nnn[nH]3)nc2-c2ccc(Cl)cc2)cc1` displayed a melting point of 160 °C. Regarding `NC(=O)c1c(I)c(C(=O)NC(CO)CO)c(I)c(C(=O)NC(CO)CO)c1I`, the melting point lay within 246 to 252 °C.

Regarding `CCCN(CCC)CCOc1ccc(NC(=O)c2c(OC)cccc2OC)cc1`, the melting point lay in the range of 116 to 120 °C.

As to `COc1nc(C)nc(NC(=O)NS(=O)(=O)c2ccccc2C(=O)OC(C)C)n1`, the melting point fell in the range of 193 to 196 °C. To `CCOC(=O)C(NC(C)=O)(C(=O)OCC)[C@@H]1CC(=O)C[C@H]1N=[N+]=[N-]` (relative stereo) belongs 121 to 122 °C. Regarding `CC(OC(=O)C(F)(F)F)C1CCC2C3CC=C4CC(NC(=O)C(F)(F)F)CCC4(C)C3CCC12C` (stereo not given), the melting point amounted to 140 °C. `COc1ccc(Cc2cc(C3CCN(C(=O)c4ccccc4)CC3)nc(N)n2)cc1` came in with a melting point of 170 to 171 °C.

In turn, `N#CNC(=S)Nc1ccc([N+](=O)[O-])cc1` displayed a melting point of more than 250 °C. Next, `O=C(O)CN1C(=O)C(NC(=O)[C@@H](S)Cc2ccccc2)CCC2CC=CC=C21` (stereo not given in full): 107 to 111 °C; `CNS(=O)(=O)c1ccc(-c2cccc3nc(Nc4cc(OC)c(OC)c(OC)c4)oc23)cc1`: 260 to 262 °C; `N#Cc1cnc(-c2ccncc2)nc1N`: 253 to 255 °C. Next, `N#CC(Br)c1ccccn1` (stereo not given): 62 to 64 °C; `CC(=NNC(=O)c1cccc([N+](=O)[O-])c1O)c1ccccc1`: 163 to 168 °C; `O=[N+]([O-])c1cc(C(F)(F)F)cc2c(Cl)ccnc12`: 100 to 107 °C. To `C[C@@H]1Cc2ccsc2[C@H](C)N1CCNC(=O)c1ccc(F)cc1` (relative stereo) belongs 110 to 114 °C; to `O=S(=O)(CC=C1CCC1)c1ccccc1`, 76 to 78 °C; to `Clc1cc(NCCc2c[nH]cn2)ccn1`, 164 to 165 °C. In the case of `CCOC(=O)c1cnc2c(cnn2-c2ccccc2)c1Cl`, the melting point was in the range of 89 to 91 °C. With `CCC(=O)OC1CCC2C3CCC4=CC(=O)CCC4(CO)C3CCC12C` (stereo not given), the melting point is 160 to 162 °C. On to `Cc1nc2ccc3c(c2o1)OC(CO)CO3` (stereo not given), for which the melting point is 120 °C.

In the case of `CC(=O)OCC(=O)Nc1cccc(N2CCOCC2)c1C#N`, the melting point fell in the range of 131 to 132 °C.

Regarding `Cn1c(CCl)cnc1[N+](=O)[O-]`, the melting point was in the range of 100 to 101 °C. Next, `O=C(O)c1cc(-n2c(-c3ccccc3)cc3c2CCCC3)ccc1O`: 209 to 211 °C. Compound `O=C(OCC1OC(OC(=O)c2ccccc2)C(F)C1OC(=O)c1ccccc1)c1ccccc1` (stereo not given) displayed a melting point of 77 to 78 °C. As to `Cc1cnc(CNC(=O)c2sc(N3CCN(Cc4ccc(F)cc4)C3=O)nc2C)cn1`, the melting point lay within 191 to 193 °C. Next, `COc1ccc(-c2ccc3c(c2)C=C(C(=O)Nc2ccc(CN(C)C4CCC5(CC4)OCCO5)cc2)CCS3(=O)=O)cc1`: 222 to 228 °C; `CCc1cc2c(s1)-n1nc(C(N)=O)nc1C(OC(C)=O)N=C2c1ccccc1Cl` (stereo not given): 168 to 170 °C; `COC(=O)CCc1ccc(NC(=O)NNC(C)=O)cc1`: 159 to 165 °C.

Turning to `COc1cc(C(=O)O)cc2c(C)c(C)oc12`, the melting point fell in the range of 229 to 231 °C. For the compound `Cc1ccccc1-n1c(CSc2ncnc3[nH]cnc23)nc2cccc(Cl)c2c1=O`, the melting point is 214 °C. Consider `N#Cc1c(N2CCCN(c3ccccc3)CC2)cc[nH]c1=S`, for which the melting point is 128 to 132 °C. Turning to `CCCc1ccc2c(=O)cc(C(=O)O)[nH]c2c1`, the melting point is more than 240 °C. To `CC1(C)C(Br)C(=O)C1CC(Cl)(Cl)Cl` (stereo not given) belongs 56 °C; to `CCCCC1CCC2NC(=O)C(=O)C2C1` (stereo not given), 112 to 113 °C; to `CCNC(=S)NC1CCCCc2sccc21` (stereo not given), 117 to 120 °C. Consider `O=C(O)CCS(=O)CCC(=O)O`, for which the melting point worked out at 114 °C. In turn, `O=C1c2ccccc2C(=O)N1CCc1ncc(C(F)(F)F)cc1Cl` came in with a melting point of 147 to 148 °C. As to `CC1(C)CC(C)(C#N)c2cn(-c3ccc(F)cc3)c(C=O)c21` (stereo not given), the melting point was in the range of 165 to 168 °C. The compound `CC1CC(C)(C)C(=O)C(C(=O)c2ccc(OC(F)F)cc2[N+](=O)[O-])C1=O` (stereo not given) registered a melting point of 108 to 110 °C.
